Test results as given in ChEMBL document CHEMBL5678816, “A Next-Generation TRK Kinase Inhibitor Overcomes Acquired Resistance to Prior TRK Kinase Inhibition in Patients with TRK Fusion-Positive Solid Tumors” (Cancer Discov, 2017).
Calls of active or inactive are those of the source. The rule behind the calls is not given here.

How the values were obtained:
NCI-H661 = assay: Inhibition of cell proliferation in human NCI-H661 cells upto 10 umol/L incubated for 72 hrs by DAPI staining based analysis; format: functional; details: dose <= 10.0 µmol/L
[1] = molecular target: Casein kinase I isoform gamma-1 (Homo sapiens) (UniProt Q9HCP0); assay: Inhibition of CK1gamma1 (unknown origin) at 1 uM in presence of ATP relative to control; values are per cent of control
Sequence of Casein kinase I isoform gamma-1 (Homo sapiens) (Q9HCP0 whole entry, looked up, canonical isoform): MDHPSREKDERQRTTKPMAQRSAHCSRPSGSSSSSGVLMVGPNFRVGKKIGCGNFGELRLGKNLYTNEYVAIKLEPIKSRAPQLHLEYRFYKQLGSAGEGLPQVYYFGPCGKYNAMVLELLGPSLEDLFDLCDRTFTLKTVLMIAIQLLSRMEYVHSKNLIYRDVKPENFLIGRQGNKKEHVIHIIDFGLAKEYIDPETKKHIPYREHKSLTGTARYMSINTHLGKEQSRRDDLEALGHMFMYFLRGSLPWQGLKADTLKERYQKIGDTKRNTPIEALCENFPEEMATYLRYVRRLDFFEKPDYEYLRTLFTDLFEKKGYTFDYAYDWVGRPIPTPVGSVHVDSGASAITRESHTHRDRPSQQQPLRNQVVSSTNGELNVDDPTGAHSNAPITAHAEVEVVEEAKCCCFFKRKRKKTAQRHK

[2] = molecular target: Serine/threonine-protein kinase WNK3 (Homo sapiens) (UniProt Q9BYP7); assay: Inhibition of WNK3 (unknown origin) at 1 uM in presence of ATP relative to control; values are per cent of control
NCI-H292 = assay: Inhibition of cell proliferation in human NCI-H292 cells upto 10 umol/L incubated for 72 hrs by DAPI staining based analysis; format: functional; details: dose <= 10.0 µmol/L
[3] = molecular target: CDK3/Cyclin E (Homo sapiens) (UniProt P24864+Q00526); assay: Inhibition of CDK3/cyclinE (unknown origin) at 1 uM in presence of ATP relative to control; values are per cent of control
[4] = molecular target: Phosphorylase b kinase gamma catalytic chain, liver/testis isoform (Homo sapiens) (UniProt P15735); assay: Inhibition of PhKgamma2 (unknown origin) at 1 uM in presence of ATP relative to control; values are per cent of control
Sequence of Phosphorylase b kinase gamma catalytic chain, liver/testis isoform (Homo sapiens) (P15735 whole entry, canonical isoform): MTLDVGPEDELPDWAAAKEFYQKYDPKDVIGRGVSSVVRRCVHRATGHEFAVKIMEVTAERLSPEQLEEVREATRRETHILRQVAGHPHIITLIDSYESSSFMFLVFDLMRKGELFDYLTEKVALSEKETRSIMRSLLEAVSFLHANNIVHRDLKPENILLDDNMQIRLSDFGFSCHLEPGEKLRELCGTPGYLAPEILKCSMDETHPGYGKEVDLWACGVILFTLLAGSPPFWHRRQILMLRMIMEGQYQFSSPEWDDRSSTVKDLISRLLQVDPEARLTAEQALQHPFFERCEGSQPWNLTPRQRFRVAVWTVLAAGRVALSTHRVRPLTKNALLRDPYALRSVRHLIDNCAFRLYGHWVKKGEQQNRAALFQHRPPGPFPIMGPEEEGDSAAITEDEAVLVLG

Rec1 = assay: Inhibition of cell proliferation in human REC1 cells upto 10 umol/L incubated for 72 hrs by DAPI staining based analysis; format: functional; details: dose <= 10.0 µmol/L
647-V = assay: Inhibition of cell proliferation in human 647-V cells upto 10 umol/L incubated for 72 hrs by DAPI staining based analysis; format: functional; details: dose <= 10.0 µmol/L
BT-549 = assay: Inhibition of cell proliferation in human BT-549 cells upto 10 umol/L incubated for 72 hrs by DAPI staining based analysis; format: functional; details: dose <= 10.0 µmol/L
[5] = AUC in pediatric patient with recurrent ETV6-NTRK3-rearranged infantile fibrosarcoma at 20 mg administered twice a day as liquid formulation for 1 day by LC-MS/MS analysis; format: ADME; details: human, in vivo
[6] = molecular target: Serine/threonine-protein kinase MRCK alpha (Homo sapiens) (UniProt Q5VT25); assay: Inhibition of MRCKalpha (unknown origin) at 1 uM in presence of ATP relative to control; values are per cent of control
[7] = molecular target: Serine/threonine-protein kinase ULK3 (Homo sapiens) (UniProt Q6PHR2); assay: Inhibition of ULK3 (unknown origin) at 1 uM in presence of ATP relative to control; values are per cent of control
Sequence of Serine/threonine-protein kinase ULK3 (Homo sapiens) (Q6PHR2 whole entry): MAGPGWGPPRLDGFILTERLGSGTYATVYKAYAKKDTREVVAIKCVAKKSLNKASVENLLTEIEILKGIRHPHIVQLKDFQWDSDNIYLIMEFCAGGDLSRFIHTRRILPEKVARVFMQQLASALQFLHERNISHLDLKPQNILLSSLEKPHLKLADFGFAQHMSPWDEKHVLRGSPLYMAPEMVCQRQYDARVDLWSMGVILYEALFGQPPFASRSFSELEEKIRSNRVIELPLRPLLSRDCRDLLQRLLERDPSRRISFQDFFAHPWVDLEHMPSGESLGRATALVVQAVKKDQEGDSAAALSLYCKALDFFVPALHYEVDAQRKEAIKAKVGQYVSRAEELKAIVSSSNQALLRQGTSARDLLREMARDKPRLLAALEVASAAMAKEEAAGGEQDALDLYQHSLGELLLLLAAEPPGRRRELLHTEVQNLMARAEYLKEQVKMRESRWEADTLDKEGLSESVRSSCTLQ

[8] = molecular target: Serine/threonine-protein kinase 24 (Homo sapiens) (UniProt Q9Y6E0); assay: Inhibition of MST3 (unknown origin) at 1 uM in presence of ATP relative to control; values are per cent of control
Sequence of Serine/threonine-protein kinase 24 (Homo sapiens) (Q9Y6E0 whole entry, looked up): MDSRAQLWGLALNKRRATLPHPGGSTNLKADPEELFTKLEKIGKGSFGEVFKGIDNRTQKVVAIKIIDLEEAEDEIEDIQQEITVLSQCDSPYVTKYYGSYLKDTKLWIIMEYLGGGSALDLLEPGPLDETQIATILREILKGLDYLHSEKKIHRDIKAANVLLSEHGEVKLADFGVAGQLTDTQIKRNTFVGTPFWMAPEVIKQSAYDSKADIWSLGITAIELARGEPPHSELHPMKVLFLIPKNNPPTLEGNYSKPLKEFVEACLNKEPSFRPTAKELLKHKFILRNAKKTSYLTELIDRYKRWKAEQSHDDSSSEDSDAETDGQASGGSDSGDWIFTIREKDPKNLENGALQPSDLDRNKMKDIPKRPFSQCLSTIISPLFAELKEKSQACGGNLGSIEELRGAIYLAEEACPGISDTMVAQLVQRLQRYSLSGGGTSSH

[9] = AUC in adult patient with recurrent LMNA-NTRK1 rearranged colorectal cancer at 100 mg administered twice a day as powder-in-capsule or liquid formulation for 15 day by LC-MS/MS analysis; format: ADME; details: human, in vivo, po
[10] = molecular target: Serine/threonine-protein kinase MARK2 (Homo sapiens) (UniProt Q7KZI7); assay: Inhibition of MARK2 (unknown origin) at 1 uM in presence of ATP relative to control; values are per cent of control
[11] = molecular target: cGMP-dependent protein kinase 1 (Homo sapiens) (UniProt Q13976); assay: Inhibition of PRKG1alpha (unknown origin) at 1 uM in presence of ATP relative to control; values are per cent of control
Sequence of cGMP-dependent protein kinase 1 (Homo sapiens) (Q13976 whole entry): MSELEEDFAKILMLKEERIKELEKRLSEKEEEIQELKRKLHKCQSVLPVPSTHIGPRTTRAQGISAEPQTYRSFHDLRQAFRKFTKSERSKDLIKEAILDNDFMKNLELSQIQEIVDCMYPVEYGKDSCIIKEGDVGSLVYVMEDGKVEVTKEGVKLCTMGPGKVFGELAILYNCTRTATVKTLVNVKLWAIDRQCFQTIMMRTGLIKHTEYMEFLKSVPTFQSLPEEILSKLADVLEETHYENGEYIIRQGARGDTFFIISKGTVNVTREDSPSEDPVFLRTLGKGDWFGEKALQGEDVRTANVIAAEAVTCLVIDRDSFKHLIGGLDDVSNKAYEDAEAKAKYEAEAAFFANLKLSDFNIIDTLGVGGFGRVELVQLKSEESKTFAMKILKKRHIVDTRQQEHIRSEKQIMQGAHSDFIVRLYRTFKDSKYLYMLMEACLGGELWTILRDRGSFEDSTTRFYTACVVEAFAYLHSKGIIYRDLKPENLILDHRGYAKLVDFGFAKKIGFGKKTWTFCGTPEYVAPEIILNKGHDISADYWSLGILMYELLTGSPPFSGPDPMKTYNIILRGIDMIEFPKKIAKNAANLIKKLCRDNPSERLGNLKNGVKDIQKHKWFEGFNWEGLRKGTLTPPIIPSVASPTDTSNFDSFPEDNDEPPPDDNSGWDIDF

[12] = molecular target: Rho-associated protein kinase 2 (Homo sapiens) (UniProt O75116); assay: Inhibition of ROCK-II (unknown origin) at 1 uM in presence of ATP relative to control; values are per cent of control
[13] = molecular target: Ephrin type-A receptor 5 (Homo sapiens) (UniProt P54756); assay: Inhibition of EphA5 (unknown origin) at 1 uM in presence of ATP relative to control; values are per cent of control
[14] = molecular target: Serine/threonine-protein kinase 4 (Homo sapiens) (UniProt Q13043); assay: Inhibition of MST1 (unknown origin) at 1 uM in presence of ATP relative to control; values are per cent of control
TAK1/TAB1 (Homo sapiens) = TAK1/TAB1 (Homo sapiens) (UniProt Q15750+O43318); assay: Inhibition of TAK1-TAB1 (unknown origin) at 1 uM in presence of ATP relative to control; values are per cent of control
[15] = molecular target: Ephrin type-A receptor 3 (Homo sapiens) (UniProt P29320); assay: Inhibition of EphA3 (unknown origin) at 1 uM in presence of ATP relative to control; values are per cent of control
EFM-19 = assay: Inhibition of cell proliferation in human EFM-19 cells upto 10 umol/L incubated for 72 hrs by DAPI staining based analysis; format: functional; details: dose <= 10.0 µmol/L
[16] = molecular target: Aurora kinase A (Homo sapiens) (UniProt O14965); assay: Inhibition of AURKA (unknown origin) at 1 uM in presence of ATP relative to control; values are per cent of control
Sequence of Aurora kinase A (Homo sapiens) (O14965 whole entry): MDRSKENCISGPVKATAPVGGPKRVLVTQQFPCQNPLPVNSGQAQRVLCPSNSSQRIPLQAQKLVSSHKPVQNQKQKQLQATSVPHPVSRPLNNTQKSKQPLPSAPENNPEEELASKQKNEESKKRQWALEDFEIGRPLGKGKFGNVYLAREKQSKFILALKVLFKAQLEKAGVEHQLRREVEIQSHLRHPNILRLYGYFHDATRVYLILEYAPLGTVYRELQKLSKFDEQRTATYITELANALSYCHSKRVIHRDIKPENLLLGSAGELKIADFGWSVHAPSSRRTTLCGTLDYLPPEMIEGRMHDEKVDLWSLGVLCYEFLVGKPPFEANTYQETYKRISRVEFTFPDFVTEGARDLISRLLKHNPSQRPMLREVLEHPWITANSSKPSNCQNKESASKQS

5637 = assay: Inhibition of cell proliferation in human 5637 cells upto 10 umol/L incubated for 72 hrs by DAPI staining based analysis; format: functional; details: dose <= 10.0 µmol/L
[17] = molecular target: Calcium/calmodulin-dependent protein kinase type 1 (Homo sapiens) (UniProt Q14012); assay: Inhibition of CAMK1 (unknown origin) at 1 uM in presence of ATP relative to control; values are per cent of control
Sequence of Calcium/calmodulin-dependent protein kinase type 1 (Homo sapiens) (Q14012 whole entry, looked up): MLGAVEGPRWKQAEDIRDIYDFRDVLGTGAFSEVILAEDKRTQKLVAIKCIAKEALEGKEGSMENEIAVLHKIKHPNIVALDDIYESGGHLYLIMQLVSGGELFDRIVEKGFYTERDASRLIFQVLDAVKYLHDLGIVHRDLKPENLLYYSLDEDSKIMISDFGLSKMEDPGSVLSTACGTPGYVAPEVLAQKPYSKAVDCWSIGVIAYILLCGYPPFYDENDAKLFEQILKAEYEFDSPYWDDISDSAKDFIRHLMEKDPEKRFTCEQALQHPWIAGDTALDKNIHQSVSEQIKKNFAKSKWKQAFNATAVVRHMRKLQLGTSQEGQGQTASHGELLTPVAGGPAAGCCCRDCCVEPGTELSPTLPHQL

[18] = molecular target: Mitogen-activated protein kinase 13 (Homo sapiens) (UniProt O15264); assay: Inhibition of […] (unknown origin) at 1 uM in presence of ATP relative to control; values are per cent of control
Sequence of Mitogen-activated protein kinase 13 (Homo sapiens) (O15264 whole entry): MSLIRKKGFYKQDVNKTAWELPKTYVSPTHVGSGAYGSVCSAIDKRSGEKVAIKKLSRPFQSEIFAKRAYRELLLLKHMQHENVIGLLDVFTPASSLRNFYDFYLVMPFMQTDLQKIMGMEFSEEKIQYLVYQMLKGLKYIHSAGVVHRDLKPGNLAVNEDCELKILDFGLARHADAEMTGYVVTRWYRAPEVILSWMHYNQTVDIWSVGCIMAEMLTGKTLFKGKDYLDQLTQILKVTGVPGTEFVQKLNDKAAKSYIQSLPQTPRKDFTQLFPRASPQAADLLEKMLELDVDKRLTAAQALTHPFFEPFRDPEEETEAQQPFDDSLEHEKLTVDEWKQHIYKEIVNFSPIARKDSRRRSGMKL

CGTH-W-1 = assay: Inhibition of cell proliferation in human CGTH-W-1 cells upto 10 umol/L incubated for 72 hrs by DAPI staining based analysis; format: functional; details: dose <= 10.0 µmol/L
[19] = molecular target: Homeodomain-interacting protein kinase 1 (Homo sapiens) (UniProt Q86Z02); assay: Inhibition of HIPK1 (unknown origin) at 1 uM in presence of ATP relative to control; values are per cent of control
Sequence of Homeodomain-interacting protein kinase 1 (Homo sapiens) (Q86Z02 whole entry, looked up): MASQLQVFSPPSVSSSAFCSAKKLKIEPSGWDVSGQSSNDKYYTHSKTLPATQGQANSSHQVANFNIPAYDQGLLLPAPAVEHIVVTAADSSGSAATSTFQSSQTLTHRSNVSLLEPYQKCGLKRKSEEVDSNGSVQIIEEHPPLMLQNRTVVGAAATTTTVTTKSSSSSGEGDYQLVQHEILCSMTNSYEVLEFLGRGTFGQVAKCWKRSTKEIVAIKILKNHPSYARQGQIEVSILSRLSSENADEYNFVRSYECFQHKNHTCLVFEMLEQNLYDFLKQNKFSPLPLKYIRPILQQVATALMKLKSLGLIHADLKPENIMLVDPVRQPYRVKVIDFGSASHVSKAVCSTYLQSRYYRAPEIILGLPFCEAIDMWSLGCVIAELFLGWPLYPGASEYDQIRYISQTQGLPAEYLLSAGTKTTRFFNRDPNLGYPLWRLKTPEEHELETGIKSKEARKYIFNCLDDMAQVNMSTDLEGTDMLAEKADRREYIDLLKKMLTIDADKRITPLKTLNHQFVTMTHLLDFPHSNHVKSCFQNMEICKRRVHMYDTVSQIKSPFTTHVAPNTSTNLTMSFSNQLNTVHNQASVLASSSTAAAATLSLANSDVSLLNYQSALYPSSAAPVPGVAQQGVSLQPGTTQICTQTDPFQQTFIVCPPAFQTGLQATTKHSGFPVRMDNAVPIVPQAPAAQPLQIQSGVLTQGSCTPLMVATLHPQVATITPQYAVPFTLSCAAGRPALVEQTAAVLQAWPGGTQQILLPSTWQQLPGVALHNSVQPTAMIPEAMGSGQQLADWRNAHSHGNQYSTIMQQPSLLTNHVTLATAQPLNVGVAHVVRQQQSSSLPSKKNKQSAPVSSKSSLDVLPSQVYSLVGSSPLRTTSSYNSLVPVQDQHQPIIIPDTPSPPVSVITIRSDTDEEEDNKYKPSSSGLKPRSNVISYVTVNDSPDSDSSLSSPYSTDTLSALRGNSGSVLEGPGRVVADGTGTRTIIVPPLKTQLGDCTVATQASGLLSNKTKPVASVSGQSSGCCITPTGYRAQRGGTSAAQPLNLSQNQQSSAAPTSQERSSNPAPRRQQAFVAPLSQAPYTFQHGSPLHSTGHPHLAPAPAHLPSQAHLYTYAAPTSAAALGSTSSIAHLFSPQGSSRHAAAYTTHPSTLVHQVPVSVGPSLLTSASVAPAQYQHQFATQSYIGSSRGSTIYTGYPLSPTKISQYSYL

SW1353 = assay: Inhibition of cell proliferation in human SW1353 cells upto 10 umol/L incubated for 72 hrs by DAPI staining based analysis; format: functional; details: dose <= 10.0 µmol/L
[20] = Cmax in adult patient with recurrent LMNA-NTRK1 rearranged colorectal cancer at 100 mg administered twice a day as powder-in-capsule or liquid formulation for 22 days by LC-MS/MS analysis; format: ADME; details: human, in vivo, oral, time 22 day

C[C@@H]1CCc2ncc(F)cc2[C@H]2CCCN2c2ccn3ncc(c3n2)C(=O)N1 [SELITRECTINIB]
inhibition (NCI-H661): inactive
residual activity [1]: 112%
residual activity [2]: 110%
inhibition (NCI-H292): inactive
residual activity [3]: 104%
residual activity [4]: 104%
inhibition (Rec1): inactive
inhibition (647-V): inactive
inhibition (BT-549): inactive
AUC at 24 h [5]: 615 ng·h/mL
residual activity [6]: 138%
residual activity [7]: 95.5%
residual activity [8]: 125%
AUC at 360 h [9]: 2620 ng·h/mL
residual activity [10]: 107%
residual activity [11]: 110%
residual activity [12]: 105%
residual activity [13]: 90%
residual activity [14]: 95.5%
residual activity (TAK1/TAB1 (Homo sapiens)): 100%
residual activity [15]: 104%
inhibition (EFM-19): inactive
residual activity [16]: 97%
inhibition 5637: inactive
residual activity [17]: 107%
residual activity [18]: 110%
inhibition (CGTH-W-1): inactive
residual activity [19]: 106%
inhibition (SW1353): inactive
Cmax [20]: 800 ng/mL
